# Reference: patent publication US20110244059A1, “INHIBITING OBESITY PROGRESSION BY INHIBITING ADIPOCYTE DIFFERENTIATION WITH A PRE-ADIPOCYTE AUTOPHAGY INHIBITOR” (The University of Medicine and Dentistry of New Jersey, priority 2008, published 2011)
# Entries after “also recorded” stand apart in the source; their conditions may differ.
# Assays:
# wild type primary MEFs = assay: Adipocyte differentiation (adipogenesis) of primary MEFs under standard induction protocol; assay type: cell-based, mouse
# Method: The MEFs were prepared from 13.5 days embryos of atg5+/+ and atg5−/− mice according to standard protocol. Briefly, whole mouse embryos were removed from the uterus, dissected and the head, tail, limbs and all internal organs were removed. The carcasses were minced, washed in PBS, and then incubated in 2 ml 0.05% Trypsin-EDTA (Invitrogen, CA, US) at 37° C. for 20 min with shaking. The digested cells were plated on a 100-mm dish in Dulbecco's modified Eagle's medium (DMEM, Invitrogen) with 10% fetal bovine serum (FCS, Invitrogen) and incubated at 37° C. in humidified air containing 5% CO2. Cells were grown for 24 hr until the culture was 90% confluent, and then split and passed on. The primary MEF cells of passage three to five were treated under standard protocol to induce adipocyte differentiation (Banks, A. S., et al. Deletion of SOCS7 leads to enhanced insulin action and enlarged islets of Langerhans. J. Clin. Invest. September 2005 115, 2462-2471). Briefly, cells were seeded in 6-well plates with cover slips and propagated to confluence. 48 hours later, which was designated as Day 0, differentiation was initiated using Dulbecco's Modified Eagle's Medium (DMEM) containing 10% fetal bovine serum, 5 μg/ml insulin, 1 μM dexamethasone, 0.5 mM 3-Isobutyl-1-methylxanthine (IBMX), and 10 μM troglitazone (Sigma, MO, US). After 2-day initiation, the media was replaced with a maintenance medium (DMEM containing 10% fetal bovine serum, 5 μg/ml insulin, and 10 μM troglitazone). Fresh maintenance medium was replaced every 2 days thereafter. Cells collected at various time points, up to maximal 14 days.
# The medium was replaced with maintenance medium including 10 μM CQ two days after initiation. Fresh maintenance medium with 10 μM CQ was replaced every two days thereafter.
# Live cells were observed under the Olympus IX70 microscope with relief contrast objectives (10× or 40×). […] For time-lapse microscopy, cells were plated on tissue culture plates and monitored using Olympus IX70 microscope with the 37° C. and 5% CO2 environmental chamber using 10× objectives. Images were collected with CCD video camera (Model MicroMax; Princeton Instruments, Trenton, N.J., US) at 5 min intervals and saved as images stacks using IPLab software (BD Biosciences Bioimaging, Rockville, Md., US). Images were processed using Image J software (NIH, Bethesda, Md., US).
# Bodipy: The differentiating cells were stained with BODIPY 493/503 (Invitrogen, CA, US) as described (DiDanato, D. et al. Fixation methods for the study of lipid droplets by immunofluorescence microscopy. J Histochem. Cytochem June 2003 51, 773-780; Gocze, P. M. et al. Factors underlying the variability of lipid droplet fluorescence in MA-10 Lydig tumor cells. Cytometry 17, 151-158.) Briefly, the cell culture slides were washed once with phosphate-buffered saline (PBS), fixed with 3% paraformaldehyde in PBS for 30 minutes at room temperature, and washed 4 times with PBS, and then stained with 10 μg/ml Bodipy 493/503 at room temperature for 15 minutes in darkness, mounted with Vectashield Mounting Medium (Vector Laboratories, CA, US). Oil Red-O: The cells on cover slides were stained with Oil Red-O (Sigma, MO, US) according to Kim et al with some modification (Kim, Y. K., et al. Reversine stimulates adipocyte differentiation and downregulates Akt and p70(s6k) singaling pathways in 3T3-L1 cells. Biochem Biophys Res Commun 358, 553-558). Oil Red-O was dissolved in isopropanol to 3.5 mg/ml. Before using, dilute 6 parts Oil Red-O stock with 4 parts H2O, sit at room temp for 20 min, and filter through 0.2 μm filter. The slides were washed once with PBS, fixed with 4% paraformaldehyde (Fisher Scientific, PA, US) buffered with PBS for 1 hr, and then washed twice with 60% isopropanol for 5 minutes each. Cells were then air dried and stained with Oil Red-O working solution for 30 minutes at 25° C.
SMILES,"cytotoxic effect on MEFs (Tunel assay) (wild type MEFs; 10 μM chloroquine for 4 days, FIG. 9D)","lipid accumulation, Bodipy 493/503 staining (wild type primary MEFs; 10 μM chloroquine, 14 days after differentiation induction, FIG. 9B)","lipid accumulation, Oil Red-O staining (spectrometry) (wild type primary MEFs; 10 μM chloroquine, 14 days after differentiation induction, FIG. 9C)",viability of the undifferentiated cells (wild type MEFs),"adipocyte differentiation of primary MEFs (wild type primary MEFs; 1 micro molar hydroxychloroquine, lesser degree than 10 micro molar)","adipocyte differentiation of primary MEFs (wild type primary MEFs; 5 micro molar hydroxychloroquine, lesser degree than 10 micro molar)",adipocyte differentiation of primary MEFs (wild type primary MEFs; 10 micro molar hydroxychloroquine during differentiation induction),"fate of cells that did differentiate (wild type primary MEFs; hydroxychloroquine treatment, 10 micro molar)"
CCN(CC)CCCC(C)Nc1ccnc2cc(Cl)ccc12 (centres unmarked) [chloroquine],little cytotoxic effect; also recorded: non-toxic,same inhibitory effect,same inhibitory effect,–,–,–,–,–
CCN(CCO)CCCC(C)Nc1ccnc2cc(Cl)ccc12 (centres unmarked) [hydroxychloroquine],–,–,–,not apparently affected,had inhibitory effect on blocking adipocyte differentiation,had inhibitory effect on blocking adipocyte differentiation,stalled at the initial stage of adipocyte differentiation,eventually died
